Measured values as given in PMC12270663, “Cagrilintide lowers bodyweight through brain amylin receptors 1 and 3” (eBioMedicine, 2025).

How the values were obtained:
[1] = tested on: area postrema (AP) neurons of WT and RAMP1/3 KO mice; test: Study 4 cohort 1: cFos positive neurons, AP; type: in vivo, mouse; settings: for Predicted (LS) mean diff., AP cFos after square root transformation: second statistical test, Figure 4b
Protocol: (§1) Mice were group housed in a controlled environment maintained at 21 ± 2 °C, under a 12/12 h light–dark cycle (lights off at 11.00 h). In the first cohort, 25 male WT and 25 male RAMP1/3 KO mice aged between 12 and 20 week-old were fed chow diet and maintained under group housing condition. In the second cohort, 18 male WT, 18 male RAMP1 KO, 18 male RAMP3 KO and 18 male RAMP1/3 KO mice aged between 10 and 15 week-old were fed chow diet and maintained under group housing condition.
For both cohorts, animals were deeply anesthetised 90 min later (pentobarbital 100 mg/kg, i.p) and transcardially perfused with cold 0.1 M of phosphate buffer (PB) for 1.5 min followed by 4% of paraformaldehyde (PFA) in PB for 2.5 min. Brains were removed and postfixed overnight in 4% of PFA and cryoprotected in 20% of sucrose-PB for 24 h. Brains were frozen in hexane on dry ice and stored at −80 °C until sectioning. Stereological brain sampling of the areas of interest was performed and brain were serially cut on a cryostat (Leica Biosystems, Germany, cat# CM3050S), mounted on Superfrost Plus slides (Thermo Fisher Scientific, Reinach, Switzerland), and cryoprotected in 50% of PB, 30% of ethylene glycol, 20% of glycerol, and subsequently stored at −20 °C.
Blocking of the mouse brain sections was performed with 0.4% Triton–4% normal goat serum in PBS for 2 h at room temperature. AP/NTS and LPBN sections were incubated at 4 °C for 48 h with rabbit anti-Fos antibody (1:500, Cell signalling technology, Switzerland, Cat# 2250, RRID: AB_2247211), and then after PBS washes, incubated with goat anti-rabbit Alexa Fluor CY3 (1:200, LuBio Science GmbH, Switzerland for Jackson Immunoresearch, Cat# 111-165-144) or alexa fluor 488 for 2 h at room temperature. After thorough washing in PBS, the sections were counterstained with DAPI, mounted immediately and coverslipped with Vectashield antifade Mounting Medium (Vectorlabs, Burlingame, USA, cat# H-1400).[40]
Photomicrographs of all sections containing AP, NTS and LPBN were taken at 20× magnification using Zeiss Axio Scan.Z1 slidescanner (Center for Microscopy and Image Analysis UZH, Zeiss, Germany). All images for each study were acquired using the same exposure time. Scanned images were imported into QuPath (QuPath 0.5.0) for quantification. Three to four sections were counted and averaged per area of interest. A polygon tool was used manually to determine the boundary of the region of interest of the brain section. A cell detection tool was used to detect every cell in the section by using a built-in cell segmentation algorithm. The cell detection tool was used on the DAPI channel to make sure that only a cell was recognised and not the background or artefact by system. A detection classifier was created by using the create detection classifier function. The numbers of positive counted DAPI cells containing a cFos signal were automatically counted within the region. The experimental group was blinded to the experimenter during the analysis.

[2] = tested on: WT and RAMP1/3 KO high fat diet fed mice; test: Study 3: body composition by EchoMRI; type: in vivo, mouse; settings: 3 nmol/kg/d s.c., 3 weeks
Protocol: (§2) Mice were s.c. injected once a day for 3 weeks 1 h before dark onset between 9.00 and 10.00 h. Prior to injection, daily body weight and food intake were measured manually. On the day of sacrifice, mice were anesthetised with pentobarbital (100 mg/kg, i.p., Cantonal Pharmacy of Zurich, Switzerland) 24 h after receiving the last dose of peptide.
Brains were harvested, snap frozen on dry ice and kept at −80 °C until mRNA extraction for next-generation sequencing (NGS) analysis. Blood samples were collected from the right ventricle of the heart during the sacrifice in 1 mL EDTA-coated tubes containing dipeptidyl peptidase-4 inhibitor (10 μL/mL blood; Sigma Aldrich, Switzerland, cat# DPP4-010) and protease inhibitor (30 μL/mL blood; Sigma Aldrich, Switzerland, cat# P2714). After centrifugation, plasma was kept at −80 °C. The mice were stored at −20 °C until body composition analysis was performed.
Lean and fat mass were measured post-mortem using EchoMRI (EchoMRI LLC, USA) at the Zurich Integrative Rodent Physiology (University of Zurich). Calibrations and measurements were performed according to manufacturer's instructions. Two measurements were performed and averaged per mouse. Fat mass and lean mass values are expressed as percent of body weight.

[3] = tested on: WT 129S2 chow-fed mice; test: Study 1: acute food intake and body weight response; type: in vivo, mouse; settings: all doses (3, 30, 300 nmol/kg s.c.)
Protocol: Thirty-two 12 week-old male WT 129S2/SvEv mice (Janvier Elevage, France) were individually housed in food monitoring cages (BioDAQ, New Brunswick, NJ, USA). Mice were housed in a controlled environment maintained at 21 ± 2 °C, under a 12/12 h light–dark cycle (lights off at 10.00 h). They were adapted to the cages and hoppers for 2 weeks before being tested. Mice were fed water and chow diet ad libitum (3.14 kcal/g of food; Kliba, Switzerland, cat# 3436).
Mice were injected subcutaneously (s.c.) at dark onset after a 4 h fast in the light phase with vehicle, 3 nmol/kg, 30 nmol/kg or 300 nmol/kg of cagrilintide.

[4] = tested on: rCTR(a); set-up: method as in PMID 34288673; settings: pEC50 = -LogEC50; cited from earlier work
[5] = tested on: rAMYR3; set-up: method as in PMID 34288673; settings: pEC50 = -LogEC50; cited from earlier work
[6] = tested on: LPBN neurons of WT and RAMP1/3 KO mice; test: Study 4 cohort 1: cFos positive neurons, LPBN; type: in vivo, mouse; settings: both 3 nmol/kg i.p., 90 min
Protocol: as §1
For both cohorts, animals were deeply anesthetised 90 min later (pentobarbital 100 mg/kg, i.p) and transcardially perfused with cold 0.1 M of phosphate buffer (PB) for 1.5 min followed by 4% of paraformaldehyde (PFA) in PB for 2.5 min. Brains were removed and postfixed overnight in 4% of PFA and cryoprotected in 20% of sucrose-PB for 24 h. Brains were frozen in hexane on dry ice and stored at −80 °C until sectioning. […]
(§3) Photomicrographs of all sections containing AP, NTS and LPBN were taken at 20× magnification using Zeiss Axio Scan.Z1 slidescanner (Center for Microscopy and Image Analysis UZH, Zeiss, Germany). […] Scanned images were imported into QuPath (QuPath 0.5.0) for quantification. Three to four sections were counted and averaged per area of interest. […] The numbers of positive counted DAPI cells containing a cFos signal were automatically counted within the region. […]

[7] = tested on: AP neurons of WT, RAMP1 KO, RAMP3 KO and RAMP1/3 KO mice; test: Study 4 cohort 2: cFos positive neurons, AP; type: in vivo, mouse; settings: 3 nmol/kg i.p.
Protocol: as §1
Cohort 2: WT, RAMP1 KO, RAMP3 KO and RAMP1/3 KO were injected i.p. at dark onset after a 12 h fast in the light phase with vehicle or cagrilintide (3 nmol/kg) (n = 6/group).
For both cohorts, animals were deeply anesthetised 90 min later (pentobarbital 100 mg/kg, i.p) and transcardially perfused with cold 0.1 M of phosphate buffer (PB) for 1.5 min followed by 4% of paraformaldehyde (PFA) in PB for 2.5 min. […]
as §3

[8] = tested on: WT and RAMP1/3 KO high fat diet fed mice; test: Study 3: 3-week treatment, food intake and body weight; type: in vivo, mouse
Protocol: Male mice were housed in a controlled environment maintained at 21 ± 2 °C, under a 12/12 h light–dark cycle (lights off at 11.00 h). Mice had ad libitum access to standard chow (3.14 kcal/g of food; Kliba, Switzerland, cat# 3436) and water, until 3–4 weeks old. Twenty-four WT and twenty-four RAMP 1/3 KO male mice were fed a 60% fat HFD (5.24 kcal/g of food; SSNIFF Spezialdiäten GmbH, Germany, cat# EF D12452) provided ad libitum for 18 weeks. Then mice were fed to a 45% fat HFD (4.73 kcal/g of food; SSNIFF Spezialdiäten GmbH, Germany, cat# EF D12451) provided ad libitum for 6 weeks until the end of the study. The mice were group housed (3–4 mice per cage) until 1 week before the 21-day treatment period. Each cage was equipped with a red plastic house, tissue paper, nest-building material and wood shavings. Prior to the 21-day treatment, mice were injected with vehicle for three days to acclimate to the daily subcutaneous injections and reduce stress associated with the injections.
as §2

CC[C@H](C)[C@H](NC(=O)[C@@H]1CCCN1C(=O)CNC(=O)[C@H](Cc1ccccc1)NC(=O)[C@H](CC(N)=O)NC(=O)[C@H](CC(N)=O)NC(=O)[C@H](CO)NC(=O)[C@H](CO)NC(=O)[C@H](Cc1c[nH]cn1)NC(=O)[C@H](CCCNC(=N)N)NC(=O)[C@H](CC(C)C)NC(=O)[C@H](Cc1ccccc1)NC(=O)[C@H](CCC(=O)O)NC(=O)[C@H](C)NC(=O)[C@H](CC(C)C)NC(=O)[C@H](CCCNC(=N)N)NC(=O)[C@H](CCC(N)=O)NC(=O)[C@@H](NC(=O)[C@H](C)NC(=O)[C@@H]1CSSC[C@H](NC(=O)[C@H](CCCCN)NC(=O)CC[C@H](NC(=O)CCCCCCCCCCCCCCCCCCC(=O)O)C(=O)O)C(=O)N[C@@H](CC(N)=O)C(=O)N[C@@H]([C@@H](C)O)C(=O)N[C@@H](C)C(=O)N[C@@H]([C@@H](C)O)C(=O)N1)[C@@H](C)O)C(=O)N[C@@H](CC(C)C)C(=O)N1CCC[C@H]1C(=O)N1CCC[C@H]1C(=O)N[C@H](C(=O)N[C@@H](CC(N)=O)C(=O)N[C@H](C(=O)NCC(=O)N[C@@H](CO)C(=O)N[C@@H](CC(N)=O)C(=O)N[C@H](C(=O)N1CCC[C@H]1C(N)=O)[C@@H](C)O)C(C)C)[C@@H](C)O [Cagrilintide]
less cFos activated AP neurons in RAMP1/3 KO vs WT mice ([1]; 3 nmol/kg i.p., cohort 1, n = 5–6/group): 57%
Predicted (LS) mean diff., AP cFos after square root transformation ([1]; Cagrilintide (3 nmol/kg), WT vs. RAMP 1/3 KO): 2.537
Predicted (LS) mean diff., AP cFos after square root transformation ([1]; RAMP 1/3 KO, Vehicle vs. Cagrilintide (3 nmol/kg), Tukey): -3.878
Predicted (LS) mean diff., AP cFos after square root transformation ([1]; WT, Vehicle vs. Cagrilintide (3 nmol/kg), Tukey): -6.224
cFos activated neurons in the AP, cagrilintide compared to sCT ([1]; both 3 nmol/kg i.p., WT and KO mice, 90 min): −75%
relative fat mass, RAMP1/3 KO compared to WT-treated counterparts [2]: +32%
relative lean mass, RAMP1/3 KO compared to WT-treated counterparts [2]: −22%
acute effect on eating [3]: significantly reduced eating
Functional assay pEC50 [95% CI], cAMP, rCTR(a) [4]: 9.54 [n.d] M
Functional assay pEC50 [95% CI], cAMP, rAMYR3 [5]: 9.46 [0.03] M
cFos activated neurons in the LPBN, cagrilintide compared to sCT [6]: −36%
decrease of activated AP neurons in RAMP1/3 KO compared to WT-injected mice [7]: 40%
effect on body weight ([8]; RAMP1/3 KO mice, 3 nmol/kg/d s.c., 21 days): no effect
acute anorectic effect on day 1 ([8]; RAMP1/3 KO mice, cagrilintide 3, sCT 150 nmol/kg s.c.): no effect
day 21 body weight loss vs WT Veh ([8]; WT mice, 3 nmol/kg/d s.c.): −66%
Body weight change after 3-week treatment ([8]; WT mice, cagrilintide 3, sCT 150 nmol/kg s.c. SID, mean ± SEM, n = 8/group): -3.4 ± 0.51 g
Food intake on Day 1 ([8]; WT mice, cagrilintide 3, sCT 150 nmol/kg s.c., mean ± SEM, n = 7–8/group): 1.2 ± 0.1 g
